Measurements as given in patent US20250179047A1, “5-[7-(3,4-DIHYDRO-1H-ISOQUINOLINE-2-CARBONYL)-1,2,3,4 TETRAHYDROISOQUINOLIN-6-YL]-1H-PYRROLE-3-CARBOXAMIDE DERIVATIVES, PHARMACEUTICAL COMPOSITIONS CONTAINING THEM AND THEIR USES AS PRO-APOPTOTIC AGENTS” (LES LABORATOIRES SERVIER, priority 2022, published 2025).
Read-outs that look alike come from different tables or passages of the source.

How the values were obtained:
BCL2 D103Y = BCL2 D103Y (Homo sapiens, UniProt P10415, D103Y); experiment: TR-FRET competitive binding assay, BCL2 D103Y; conditions: Ki determined from IC50, read-out: TR_FRET EKI_Bcl2 D103Y
Summary of the method: (§1)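 Terbium-labelled N-terminal Halo-fusion BCL2 or BCLXL (E. coli), 0.5 nM, competed against fluorescein-labelled PUMA peptide (2 or 20 nM) for 2 h at 23° C in 50 mM Hepes pH 7.5, 150 mM NaCl, 5% DMSO. TR-FRET 520/495 nm ratio gave IC50 by four-parameter fit; Ki derived from IC50.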

BCL2 G101V [1] = target: BCL2 G101V (Homo sapiens, UniProt P10415, G101V); experiment: TR-FRET competitive binding assay, BCL2 G101V; conditions: BCL2 G101V; Ki determined from IC50; read-out: TR_FRET EKI_Bcl2 G101V
Summary of the method: as §1

BCL2 G101V [2] = experiment: TR-FRET competitive binding assay, BCL2 G101V; parameters: species or system human; conditions: for TR_FRET EKI G101V/WT selectivty ratio: ratio Ki BCL2 G101V / Ki BCL2 WT; for TR_FRET EKI G101V/WT selectivty: ratio of Ki BCL2 G101V to BCL2 WT
Summary of the method: as §1

BCLXL WT = BCLXL WT (Homo sapiens (Human), UniProt Q07817); experiment: TR-FRET competitive binding assay, BCLXL WT; conditions: for Ki: BCLXL WT, Ki determined from IC50, read-out: TR_FRET EKI BclxL; for TR_FRET EKI BCLxL/WT selectivty ratio: ratio Ki BCLxL / Ki BCL2 WT; for TR_FRET EKI BCLxL/WT selectivty: ratio of Ki BCLxL to BCL2 WT
Summary of the method: as §1

BCL2 WT = BCL2 WT (Homo sapiens (Human), UniProt P10415); experiment: TR-FRET competitive binding assay, BCL2 WT
Summary of the method: as §1

KMS-12-PE Bcl-2 WT = experiment: In vitro cytotoxicity CellTiter-Glo 48 h, KMS-12-PE Bcl-2 WT; assay type: cell-based; conditions: Homo sapiens, KMS-12-PE, C50 = concentration needed to reach 50% of the cellular viability
Summary of the method: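 KMS-12-PE myeloma cells lentivirally transduced with Bcl-2 WT or G101V (TagRFP-sorted), exposed to compound 11-point dose-response for 48 h at 37 °C, 5% CO2. Viability read by CellTiter-Glo ATP luminescence; C50 is the concentration giving 50% cellular viability.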

[3] = Ki determined from IC50, read-out: TR_FRET EKI_Bcl2 WT
[4] = Ki determined from IC50, read-out: TR_FRET EKI_Bcl2

BCLXL WT, sequence (Q07817 other isoform, or with tags, fused parts or gaps): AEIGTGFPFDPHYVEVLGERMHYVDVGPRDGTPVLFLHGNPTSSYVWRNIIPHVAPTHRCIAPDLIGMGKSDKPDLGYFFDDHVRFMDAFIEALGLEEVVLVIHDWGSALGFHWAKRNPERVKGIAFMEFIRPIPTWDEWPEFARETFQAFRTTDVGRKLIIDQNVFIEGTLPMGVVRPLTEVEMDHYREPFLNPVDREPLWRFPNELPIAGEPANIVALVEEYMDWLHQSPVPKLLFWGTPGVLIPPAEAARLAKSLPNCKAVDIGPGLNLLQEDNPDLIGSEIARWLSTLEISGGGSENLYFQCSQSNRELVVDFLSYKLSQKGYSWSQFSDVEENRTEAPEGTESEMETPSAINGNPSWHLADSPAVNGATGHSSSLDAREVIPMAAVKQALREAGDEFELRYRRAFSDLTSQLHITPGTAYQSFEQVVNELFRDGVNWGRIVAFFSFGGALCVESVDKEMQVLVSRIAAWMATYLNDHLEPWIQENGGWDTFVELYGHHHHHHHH

Row | SMILES | Ki (BCL2 D103Y) | Ki (BCL2 G101V [1]) | TR_FRET EKI G101V/WT selectivty ratio (BCL2 G101V [2]) | Ki (BCLXL WT) | TR_FRET EKI BCLxL/WT selectivty ratio (BCLXL WT) | Ki (BCL2 WT; [3]) | TR_FRET EKI G101V/WT selectivty (BCL2 G101V [2]) | TR_FRET EKI BCLxL/WT selectivty (BCLXL WT) | Ki (BCL2 WT; [4]) | IC50 (KMS-12-PE Bcl-2 WT)
1 | Cc1c(C(=O)N(c2ccccc2)c2cnn(C(F)F)c2)cc(-c2cc3c(cc2C(=O)N2Cc4ccccc4C[C@H]2C)CN(C(=O)Cc2ccc(OCCN4CCOCC4)cc2)CC3)n1C [Example 190, N-[1-(difluoromethyl)pyrazol-4-yl]-1,2-dimethyl-5-[7-[(3R)-3-methyl-3,4-dihydro-1H-isoquinoline-2-carbonyl]-2-[2-[4-(2-morpholinoethoxy)phenyl]acetyl]-3,4-dihydro-1H-isoquinolin-6-yl]-N-phenyl-pyrrole-3-carboxamide] | 0.12 nM | 3.6 nM | 73.4 | 16.8 nM | 342.7 | 0.05 nM |  |  |  | 0.0077 µM
2 | Cc1c(C(=O)N(c2ccccc2)c2cnn(C(F)F)c2)cc(-c2cc3c(cc2C(=O)N2Cc4ccccc4C[C@H]2C)CN(C(=O)Cc2ccc(C#CCN4CCOCC4)cc2)CC3)n1C [Example 212, N-[1-(difluoromethyl)pyrazol-4-yl]-1,2-dimethyl-5-[7-[(3R)-3-methyl-3,4-dihydro-1H-isoquinoline-2-carbonyl]-2-[2-[4-(3-morpholinoprop-1-ynyl)phenyl]acetyl]-3,4-dihydro-1H-isoquinolin-6-yl]-N-phenyl-pyrrole-3-carboxamide] | 0.13 nM | 1.7 nM | 37.0 | 4.8 nM | 104.3 | 0.05 nM |  |  |  | 0.006 µM
3 | Cc1c(C(=O)N(c2ccccc2)c2cc(F)cc(C#N)c2)cc(-c2cc3c(cc2C(=O)N2Cc4ccccc4C[C@H]2C)CN(C(=O)Cc2ccc(OCCN4CCOCC4)cc2)CC3)n1C [Example 226, N-(3-cyano-5-fluoro-phenyl)-1,2-dimethyl-5-[7-[(3R)-3-methyl-3,4-dihydro-1H-isoquinoline-2-carbonyl]-2-[2-[4-(2-morpholinoethoxy)phenyl]acetyl]-3,4-dihydro-1H-isoquinolin-6-yl]-N-phenyl-pyrrole-3-carboxamide] | 0.76 nM | 8.4 nM |  | 41.8 nM |  |  | 32.2 | 160.8 | 0.26 nM | 0.0365 µM
4 | COc1ncc(N(C(=O)c2cc(-c3cc4c(cc3C(=O)N3Cc5ccccc5C[C@H]3C)CN(C(=O)Cc3ccc(OCCN5CCOCC5)cc3)CC4)n(C)c2C)c2ccccc2)cc1F [Example 183, N-(5-fluoro-6-methoxy-3-pyridyl)-1,2-dimethyl-5-[7-[(3R)-3-methyl-3,4-dihydro-1H-isoquinoline-2-carbonyl]-2-[2-[4-(2-morpholinoethoxy)phenyl]acetyl]-3,4-dihydro-1H-isoquinolin-6-yl]-N-phenyl-pyrrole-3-carboxamide] | 0.35 nM | 5.6 nM | 43.8 | 15.1 nM | 117.3 | 0.13 nM |  |  |  | 0.0143 µM
5 | COc1ccc(N(C(=O)c2cc(-c3cc4c(cc3C(=O)N3Cc5ccccc5C[C@H]3C)CN(C(=O)Cc3ccc(OCCN5CCOCC5)cc3F)CC4)n(C)c2C)c2ccccc2)cn1 [Example 192, 5-[2-[2-[2-fluoro-4-(2-morpholinoethoxy)phenyl]acetyl]-7-[(3R)-3-methyl-3,4-dihydro-1H-isoquinoline-2-carbonyl]-3,4-dihydro-1H-isoquinolin-6-yl]-N-(6-methoxy-3-pyridyl)-1,2-dimethyl-N-phenyl-pyrrole-3-carboxamide] | 0.11 nM | 2.6 nM | 58.9 | 7.7 nM | 175.0 | 0.04 nM |  |  |  | 0.0083 µM
6 | Cc1c(C(=O)N(c2ccccc2)c2cnn(C)c2)cc(-c2cc3c(cc2C(=O)N2Cc4ccccc4C[C@H]2C)CN(C(=O)Cc2ccc(OCCN4CCOCC4)cc2F)CC3)n1C [Example 197, 5-[2-[2-[2-fluoro-4-(2-morpholinoethoxy)phenyl]acetyl]-7-[(3R)-3-methyl-3,4-dihydro-1H-isoquinoline-2-carbonyl]-3,4-dihydro-1H-isoquinolin-6-yl]-1,2-dimethyl-N-(1-methylpyrazol-4-yl)-N-phenyl-pyrrole-3-carboxamide] | 0.05 nM | 1.2 nM | 63.9 | 9.9 nM | 523.3 | 0.02 nM |  |  |  | 0.0023 µM
7 | COc1ccc(N(C(=O)c2cc(-c3cc4c(cc3C(=O)N3Cc5ccccc5C[C@H]3C)CN(C(=O)Cc3ccc(OCCN5CCOCC5)cc3)CC4)n(C)c2C)c2ccccc2)cn1 [Example 191, N-(6-methoxy-3-pyridyl)-1,2-dimethyl-5-[7-[(3R)-3-methyl-3,4-dihydro-1H-isoquinoline-2-carbonyl]-2-[2-[4-(2-morpholinoethoxy)phenyl]acetyl]-3,4-dihydro-1H-isoquinolin-6-yl]-N-phenyl-pyrrole-3-carboxamide] | 0.07 nM | 2.4 nM | 65.3 | 9.5 nM | 264.0 | 0.04 nM |  |  |  | 0.0131 µM

Further lines, with some results ahead:

Row | Ki (BCL2 D103Y) | Ki (BCL2 G101V [1]) | TR_FRET EKI G101V/WT selectivty ratio (BCL2 G101V [2]) | Ki (BCLXL WT) | TR_FRET EKI BCLxL/WT selectivty ratio (BCLXL WT) | Ki (BCL2 WT; [3]) | TR_FRET EKI G101V/WT selectivty (BCL2 G101V [2]) | TR_FRET EKI BCLxL/WT selectivty (BCLXL WT) | Ki (BCL2 WT; [4]) | SMILES | IC50 (KMS-12-PE Bcl-2 WT)
8 | 0.16 nM | 0.76 nM |  | 3.68 nM |  |  | 8.9 | 42.8 | 0.086 nM | Cc1c(N(C(=O)c2cc(-c3cc4c(cc3C(=O)N3Cc5ccccc5C[C@H]3C)CN(C(=O)Cc3ccc(OCCN5CCOCC5)cc3F)CC4)n(C)c2C)c2ccccc2)cc(C#N)n1C [Example 234] | 0.00221 µM
9 | 0.17 nM | 1.9 nM | 30.8 | 9.6 nM | 152.4 | 0.06 nM |  |  |  | Cc1ccc(N(C(=O)c2cc(-c3cc4c(cc3C(=O)N3Cc5ccccc5C[C@H]3C)CN(C(=O)Cc3ccc(OCCN5CCOCC5)cc3)CC4)n(C)c2C)c2ccccc2)cc1C#N [Example 204, N-(3-cyano-4-methyl-phenyl)-1,2-dimethyl-5-[7-[(3R)-3-methyl-3,4-dihydro-1H-isoquinoline-2-carbonyl]-2-[2-[4-(2-morpholinoethoxy)phenyl]acetyl]-3,4-dihydro-1H-isoquinolin-6-yl]-N-phenyl-pyrrole-3-carboxamide] | 0.0111 µM
10 | 0.08 nM | 0.32 nM |  | 2.74 nM |  |  | 8.2 | 70.3 | 0.039 nM | Cc1c(C(=O)N(c2ccc(O)cc2)c2cnn(C)c2)cc(-c2cc3c(cc2C(=O)N2Cc4ccccc4C[C@H]2C)CN(C(=O)Cc2ccc(OCCN4CCOCC4)cc2F)CC3)n1C [Example 233] | 0.00694 µM
11 | 0.13 nM | 1.07 nM |  | 2.8 nM |  |  | 16.7 | 43.8 | 0.064 nM | Cc1c(C(=O)N(c2ccccc2)c2cnn(C(F)F)c2)cc(-c2cc3c(cc2C(=O)N2Cc4ccccc4C[C@H]2C)CN(C(=O)Cc2ccc(OCCC4CCN(C)CC4)cc2)CC3)n1C [Example 238] | 0.00907 µM
12 | 0.05 nM | 0.9 nM | 63.6 | 5 nM | 359.1 | 0.014 nM |  |  |  | Cc1c(C(=O)N(c2ccccc2)c2cnc3c(cnn3C)c2)cc(-c2cc3c(cc2C(=O)N2Cc4ccccc4C[C@H]2C)CN(C(=O)Cc2ccc(OCCN4CCOCC4)cc2)CC3)n1C [Example 195, 1,2-dimethyl-5-[7-[(3R)-3-methyl-3,4-dihydro-1H-isoquinoline-2-carbonyl]-2-[2-[4-(2-morpholinoethoxy)phenyl]acetyl]-3,4-dihydro-1H-isoquinolin-6-yl]-N-(1-methylpyrazolo[3,4-b]pyridin-5-yl)-N-phenyl-pyrrole-3-carboxamide] | 0.0041 µM
13 | 0.21 nM | 3.8 nM | 47.5 | 23 nM | 291.1 | 0.08 nM |  |  |  | COc1ccc(N(C(=O)c2cc(-c3cc4c(cc3C(=O)N3Cc5ccccc5C[C@H]3C)CN(C(=O)Cc3ccc(OCCN5CCOCC5)cc3)CC4)n(C)c2C)c2ccc(F)cc2)cc1C#N [Example 209, N-(3-cyano-4-methoxy-phenyl)-N-(4-fluorophenyl)-1,2-dimethyl-5-[7-[(3R)-3-methyl-3,4-dihydro-1H-isoquinoline-2-carbonyl]-2-[2-[4-(2-morpholinoethoxy)phenyl]acetyl]-3,4-dihydro-1H-isoquinolin-6-yl]pyrrole-3-carboxamide] | 0.0486 µM
